Source: ChEMBL document CHEMBL1201862, “PubChem BioAssay data set” (2004)
Where “and” joins values, the source holds several entries; their conditions need not be identical. Equal values may be shown once.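 The compound was tested at five concentrations on cells cultured in 96-well plates, with a 48-hour exposure period. The concentration for 50% growth inhibition is given as GI50.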 Calls of active or inactive are those of the source. Rule as the data show it: active = GI50 up to about 1.1 µM and inactive = higher.

Legend:
Test in all cases: inhibition of tumour cell growth, NCI panel, 48 h
ACHN = test system: ACHN
SK-OV-3 = test system: SK-OV-3
HOP-62 = test system: HOP-62
HT-29 = test system: HT-29
SF-295 = test system: SF-295
MOLT-4 = test system: MOLT-4
HCT-116 = test system: HCT-116
CAKI-1 = test system: CAKI-1
UACC-257 = test system: UACC-257
M14 = test system: M14
OVCAR-4 = test system: OVCAR-4
SK-MEL-5 = test system: SK-MEL-5
IGROV-1 = test system: IGROV-1
HL-60 = test system: HL-60
RXF 393 = test system: RXF 393
K562 = test system: K562
RPMI-8226 = test system: RPMI-8226
NCI-H23 = test system: NCI-H23
SF-268 = test system: SF-268

Measured: GI50

OCCCCCNc1ccnc2cc(Cl)ccc12
inactive: ACHN > 100 µM | SK-OV-3 > 100 µM | HOP-62 > 100 µM | HT-29 29.2 µM | SF-295 47.3 µM | MOLT-4 24.6 µM | HCT-116 33.7 µM | CAKI-1 > 100 µM | UACC-257 > 100 µM | M14 > 100 µM | OVCAR-4 > 100 µM | SK-MEL-5 53.5 µM | IGROV-1 > 100 µM | HL-60 22 µM | RXF 393 > 100 µM | K562 21.9 µM | RPMI-8226 31.3 µM | NCI-H23 > 100 µM | SF-268 > 100 µM

NC(=O)/N=C1\NC(Cc2ccccc2)C(=O)N1Cc1ccccc1 (stereo not given)
inactive: ACHN 80.4 µM | SK-OV-3 > 100 µM | HOP-62 > 100 µM | HT-29 > 100 µM | SF-295 > 100 µM | MOLT-4 > 100 µM | HCT-116 > 100 µM | UACC-257 > 100 µM | M14 > 100 µM | OVCAR-4 > 100 µM | SK-MEL-5 > 100 µM | IGROV-1 > 100 µM | HL-60 > 100 µM | RXF 393 > 100 µM | K562 > 100 µM | RPMI-8226 > 100 µM | NCI-H23 > 100 µM | SF-268 > 100 µM

CC(=O)OCC1OC(n2c(C)c(C)cc(C#N)c2=S)C(OC(C)=O)C(OC(C)=O)C1OC(C)=O (stereo not given)
inactive: ACHN > 100 µM | HOP-62 > 100 µM and 91 µM | HT-29 > 100 µM | SF-295 > 100 µM | MOLT-4 > 100 µM | HCT-116 > 100 µM | CAKI-1 > 100 µM | UACC-257 > 100 µM | M14 > 100 µM | OVCAR-4 > 100 µM | SK-MEL-5 > 100 µM | IGROV-1 > 100 µM | HL-60 > 100 µM | RXF 393 > 100 µM | K562 > 100 µM | RPMI-8226 > 100 µM | NCI-H23 > 100 µM | SF-268 60.5 µM

CCN1C(=O)/C(=C\c2coc3ccccc3c2=O)SC1=S
inactive: ACHN > 100 µM | SK-OV-3 > 100 µM | HOP-62 61.9 µM | HT-29 > 100 µM | SF-295 42 µM | MOLT-4 > 100 µM | HCT-116 64 µM | CAKI-1 > 100 µM | UACC-257 > 100 µM | M14 > 100 µM | OVCAR-4 > 100 µM | SK-MEL-5 > 100 µM | IGROV-1 > 100 µM | HL-60 > 100 µM | RXF 393 36.5 µM | K562 > 100 µM | RPMI-8226 > 100 µM | NCI-H23 58.9 µM | SF-268 66.8 µM

O=C(c1ccccc1)c1nnc(C(=O)c2ccccc2)nn1
inactive: ACHN > 344 µM | SK-OV-3 278 µM | HOP-62 > 344 µM | HT-29 > 344 µM | SF-295 139 µM | MOLT-4 > 344 µM | HCT-116 > 344 µM | CAKI-1 > 344 µM | UACC-257 > 344 µM | M14 272 µM | OVCAR-4 > 344 µM | SK-MEL-5 > 344 µM | IGROV-1 > 344 µM | HL-60 > 344 µM | RXF 393 151 µM | K562 119 µM | RPMI-8226 > 344 µM | NCI-H23 308 µM | SF-268 > 344 µM

CCOc1cccc2cccnc12
inactive: ACHN > 100 µM | SK-OV-3 > 100 µM | HOP-62 > 100 µM | HT-29 > 100 µM | SF-295 > 100 µM | MOLT-4 > 100 µM | HCT-116 > 100 µM | UACC-257 > 100 µM | M14 > 100 µM | OVCAR-4 > 100 µM | SK-MEL-5 > 100 µM | IGROV-1 > 100 µM | HL-60 > 100 µM | RXF 393 > 100 µM | K562 > 100 µM | RPMI-8226 > 100 µM | NCI-H23 > 100 µM | SF-268 > 100 µM

O=Cc1cc2sc(C=O)cc2s1
inactive: SK-OV-3 > 100 µM | HOP-62 > 100 µM | HT-29 > 100 µM | SF-295 > 100 µM | MOLT-4 > 100 µM | HCT-116 > 100 µM | CAKI-1 45.3 µM | UACC-257 > 100 µM | M14 > 100 µM | OVCAR-4 > 100 µM | SK-MEL-5 > 100 µM | IGROV-1 > 100 µM | HL-60 > 100 µM | RXF 393 > 100 µM | K562 > 100 µM | RPMI-8226 > 100 µM | NCI-H23 > 100 µM | SF-268 > 100 µM

CN(C)CCC(CCN(C)C)=NO
inactive: ACHN > 100 µM | SK-OV-3 > 100 µM | HOP-62 > 100 µM | HT-29 > 100 µM | SF-295 > 100 µM | MOLT-4 > 100 µM | HCT-116 > 100 µM | CAKI-1 > 100 µM | UACC-257 > 100 µM | M14 > 100 µM | OVCAR-4 > 100 µM | SK-MEL-5 > 100 µM | IGROV-1 > 100 µM | HL-60 > 100 µM | RXF 393 > 100 µM | K562 > 100 µM | RPMI-8226 > 100 µM | NCI-H23 > 100 µM | SF-268 > 100 µM

CN1C(c2ccccc2)CC(=O)C(N)C1c1ccccc1 (stereo not given)
inactive: ACHN 35.9 µM | SK-OV-3 > 58.6 µM | HOP-62 > 92.5 µM | HT-29 23.9 µM | SF-295 48.9 µM | MOLT-4 20.1 µM | HCT-116 18 µM | CAKI-1 28.3 µM | UACC-257 30.3 µM | M14 26.6 µM | OVCAR-4 49.4 µM | SK-MEL-5 18.8 µM | IGROV-1 43.5 µM | HL-60 20.6 µM | RXF 393 24.4 µM | K562 30.6 µM | RPMI-8226 17.3 µM | NCI-H23 42.5 µM | SF-268 38.2 µM

CCCCCCCCC(=O)CCCCCCCCC(=O)O
inactive: ACHN 25.3 µM | SK-OV-3 > 100 µM | HOP-62 26.9 µM | HT-29 23 µM | SF-295 26.4 µM | MOLT-4 14.8 µM | HCT-116 21.6 µM | CAKI-1 34.5 µM | UACC-257 > 100 µM | M14 32.1 µM | OVCAR-4 50.2 µM | SK-MEL-5 15.5 µM | IGROV-1 18.7 µM | HL-60 4.09 µM | RXF 393 27.4 µM | K562 18.9 µM | RPMI-8226 16.7 µM | NCI-H23 30.3 µM | SF-268 23.9 µM

O=C1C2C3C=CC(C2C(=O)N1COP(=O)(O)O)C1C2C(=O)N(COP(=O)(O)O)C(=O)C2C31 (stereo not given)
inactive: ACHN > 91.2 µM | SK-OV-3 > 100 µM | HOP-62 > 100 µM | HT-29 > 100 µM | SF-295 > 100 µM | MOLT-4 > 100 µM | HCT-116 > 42.6 µM | CAKI-1 > 100 µM | UACC-257 > 100 µM | M14 > 100 µM | OVCAR-4 > 100 µM | SK-MEL-5 > 100 µM | IGROV-1 > 100 µM | HL-60 15.5 µM | RXF 393 > 100 µM | K562 > 67 µM | RPMI-8226 > 46.1 µM | NCI-H23 > 100 µM | SF-268 > 67.5 µM
